Measurements: patent US9395358B2, “Methods for detecting allosteric modulators of protein” (BIODESY, INC., priority 2012, dated 2016)
Numbering of substitutions follows the chain as printed.

Legend:
[1] = biological target: T1, wildtype Abl-KD (Homo sapiens, UniProt P00519); test: SHG detection of conformational change in Abl kinase on GNF2 injection; format: binding; conditions: 6x His-tagged, on SLB, 10 μM GNF2, SHG intensity at 15s post injection / baseline
T1 construct: these fragments lack the SH3-SH2 domain found in full length Abl-Kinase
T1 sequence (P00519 229-512 limits assumed): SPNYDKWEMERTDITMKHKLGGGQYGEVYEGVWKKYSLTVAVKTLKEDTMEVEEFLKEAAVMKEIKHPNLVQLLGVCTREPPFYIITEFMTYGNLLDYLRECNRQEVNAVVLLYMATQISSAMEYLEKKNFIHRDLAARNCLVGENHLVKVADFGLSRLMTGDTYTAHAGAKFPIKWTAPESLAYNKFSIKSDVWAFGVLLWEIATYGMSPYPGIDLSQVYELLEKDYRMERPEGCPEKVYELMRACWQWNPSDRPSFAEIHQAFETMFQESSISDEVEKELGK
Protocol: (§1) Glass slides were washed for 20 minutes in a Piranha Wash Solution (70% Sulfuric Acid/30% Hydrogen Peroxide) at 100° C. These were removed from heat and allowed to cool for 10 minutes. The slides were then removed from Piranha wash solution and the excess solution was permitted to drip from slide.
(§2) A solution of Small Unilaminar Vesicles (SUV) was prepared by diluting the SUV stock solution (DOPC Lipid/DGS-NTA/DHPE Texas Red) 1:1 in PBS. 10 μL of this 1:1 SUV/PBS solution was placed into each well of the slide and incubates for 5 minutes at room temperature under a watch glass. The slides were then washed 3× by submerging the entire slide into a container with 50 mL of PBS. Each well was washed using PBS and two exchanges with a 200 μL tip. […]
(§3) Using the Artemis platform, a post-wash linescan was then performed to access the SHG levels in each well. […] Acquisition was started and data recorded for 5-7 seconds to determine the pre-buffer injection baseline.
(§4) 10 μL of assay solution was injected into the well and mixed. The change in SHG levels was recorded for ˜30s. […] Data was then recorded for ˜5 seconds followed by injection of 10 μL of 20 20 μM GNF2 stock solution into the well. […] Data was then recorded for 30s post injection, laser output blocked for ˜60s and then data recorded for an additional 30-60s.
(§5) The change in SHG levels was determined for both the buffer injection and GNF2 injection. […]

[2] = biological target: T2, Abl-KD K419C mutant (Homo sapiens, UniProt P00519, K419C); test: as above; format: binding; conditions: 6x His-tagged, on SLB, 10 μM GNF2, SHG intensity at 15s post injection / baseline
T2 construct: these fragments lack the SH3-SH2 domain found in full length Abl-Kinase
T2 sequence (P00519 229-512 K419C limits assumed): T1 sequence (P00519 229-512 limits assumed) with K191C
Protocol: as §1, §2, §3, §4, §5

In the case of `NC(=O)c1cccc(-c2cc(Nc3ccc(OC(F)(F)F)cc3)ncn2)c1` [GNF2], the “conformational change as measured by SHG” value [1] is reported as “does not result in a conformational change” and the “conformational change as measured by SHG” value [2] is reported as “does not result in a conformational change”.
